Data reported in PubChem BioAssay AID1259407 (Chemical Carcinogenesis Research Information System (CCRIS), 2018).
Calls of active or inactive are those of the source. How the calls were made is not given here.

Tested on: CCRIS mutagenicity, Ames/micronucleus/aberration tests
Experiment: CCRIS mutagenicity studies
[1] = Test System: AMES SALMONELLA TYPHIMURIUM, Strain/Indicator: TA100, Metabolic Activation: NONE, Method: STANDARD PLATE
[2] = Test System: AMES SALMONELLA TYPHIMURIUM, Strain/Indicator: TA100, Metabolic Activation: RAT, LIVER, S-9, AROCLOR 1254, Method: STANDARD PLATE
[3] = Test System: AMES SALMONELLA TYPHIMURIUM, Strain/Indicator: TA1535, Metabolic Activation: NONE, Method: STANDARD PLATE
[4] = Test System: AMES SALMONELLA TYPHIMURIUM, Strain/Indicator: TA98, Metabolic Activation: NONE, Method: STANDARD PLATE
[5] = Test System: AMES SALMONELLA TYPHIMURIUM, Strain/Indicator: TA98, Metabolic Activation: RAT, LIVER, S-9, AROCLOR 1254, Method: STANDARD PLATE

`COc1cc2c(c3oc(=O)c4c(c13)CC[C@@H]4O)[C@@H]1C=CO[C@@H]1O2` was tested, and the mutagenic call (Test System: AMES SALMONELLA TYPHIMURIUM, Strain/Indicator: TA98, Metabolic Activation: RAT, LIVER, S-9, PHENOBARBITAL, Method: STANDARD PLATE) was “active; positive”, the mutagenic call (Test System: AMES SALMONELLA TYPHIMURIUM, Strain/Indicator: TA98, Metabolic Activation: RAT, LIVER, S-9, Method: STANDARD PLATE) was “active; positive” and the mutagenic call [1] was “inactive; negative”. The mutagenic call [2] was “active; positive”, the mutagenic call (Test System: UDS HUMAN FIBROBLASTS, Strain/Indicator: THY INCORP (NON-S-PHASE), Metabolic Activation: MOUSE, LIVER, S-9, Method: AUTORADIOGRAPHY) was “active; positive” and the mutagenic call (Test System: UDS HUMAN FIBROBLASTS, Strain/Indicator: THY INCORP (NON-S-PHASE), Metabolic Activation: RAT, LIVER, S-9, Method: AUTORADIOGRAPHY) was “active; positive”.

`CCC/C=C(/C=O)CC` was tested, and the mutagenic call (Test System: AMES SALMONELLA TYPHIMURIUM, Strain/Indicator: TA97, Metabolic Activation: HAMSTER, LIVER, S-9, AROCLOR 1254 (10 OR 30%), Method: PREINCUBATION) was “inactive; negative”, the mutagenic call (Test System: AMES SALMONELLA TYPHIMURIUM, Strain/Indicator: TA97, Metabolic Activation: NONE, Method: PREINCUBATION) was “inactive; negative” and the mutagenic call (Test System: AMES SALMONELLA TYPHIMURIUM, Strain/Indicator: TA97, Metabolic Activation: RAT, LIVER, S-9, AROCLOR 1254 (10 OR 30%), Method: PREINCUBATION) was “inactive; negative”. For the same molecule, the mutagenic call (Test System: AMES SALMONELLA TYPHIMURIUM, Strain/Indicator: TA98, Metabolic Activation: HAMSTER, LIVER, S-9, AROCLOR 1254 (10 OR 30%), Method: PREINCUBATION) was “inactive; negative”, the mutagenic call (Test System: AMES SALMONELLA TYPHIMURIUM, Strain/Indicator: TA98, Metabolic Activation: NONE, Method: PREINCUBATION) was “inactive; negative” and the mutagenic call (Test System: AMES SALMONELLA TYPHIMURIUM, Strain/Indicator: TA98, Metabolic Activation: RAT, LIVER, S-9, AROCLOR 1254 (10 OR 30%), Method: PREINCUBATION) was “inactive; negative”. The mutagenic call (Test System: AMES SALMONELLA TYPHIMURIUM, Strain/Indicator: TA100, Metabolic Activation: HAMSTER, LIVER, S-9, AROCLOR 1254 (10 OR 30%), Method: PREINCUBATION) was “inactive; negative”, the mutagenic call (Test System: AMES SALMONELLA TYPHIMURIUM, Strain/Indicator: TA100, Metabolic Activation: NONE, Method: PREINCUBATION) was “inactive; negative” and the mutagenic call (Test System: AMES SALMONELLA TYPHIMURIUM, Strain/Indicator: TA100, Metabolic Activation: RAT, LIVER, S-9, AROCLOR 1254 (10 OR 30%), Method: PREINCUBATION) was “inactive; negative”. For the same molecule, the mutagenic call (Test System: AMES SALMONELLA TYPHIMURIUM, Strain/Indicator: TA1535, Metabolic Activation: HAMSTER, LIVER, S-9, AROCLOR 1254 (10 OR 30%), Method: PREINCUBATION) was “inactive; negative”, the mutagenic call (Test System: AMES SALMONELLA TYPHIMURIUM, Strain/Indicator: TA1535, Metabolic Activation: NONE, Method: PREINCUBATION) was “inactive; negative” and the mutagenic call (Test System: AMES SALMONELLA TYPHIMURIUM, Strain/Indicator: TA1535, Metabolic Activation: RAT, LIVER, S-9, AROCLOR 1254 (10 OR 30%), Method: PREINCUBATION) was “inactive; negative”.

`O=C1CCCc2cc([N+](=O)[O-])c3ccccc3c21` was tested, and the mutagenic call (Test System: AMES SALMONELLA TYPHIMURIUM, Strain/Indicator: TA98-1,8-DNP6, Metabolic Activation: NONE) was “inactive; negative”, the mutagenic call (Test System: AMES SALMONELLA TYPHIMURIUM, Strain/Indicator: TA98-1,8-DNP6, Metabolic Activation: S-9) was “inactive; negative” and the mutagenic call (Test System: AMES SALMONELLA TYPHIMURIUM, Strain/Indicator: TA98, Metabolic Activation: NONE) was “active; positive”. For the same molecule, the mutagenic call (Test System: AMES SALMONELLA TYPHIMURIUM, Strain/Indicator: TA98, Metabolic Activation: S-9) was “active; positive”, the mutagenic call (Test System: AMES SALMONELLA TYPHIMURIUM, Strain/Indicator: TA98NR, Metabolic Activation: NONE) was “inactive; negative” and the mutagenic call (Test System: AMES SALMONELLA TYPHIMURIUM, Strain/Indicator: TA98NR, Metabolic Activation: S-9) was “inactive; negative”. For the same molecule, the mutagenic call (Test System: AMES SALMONELLA TYPHIMURIUM, Strain/Indicator: TA100, Metabolic Activation: NONE) was “active; positive”, the mutagenic call (Test System: AMES SALMONELLA TYPHIMURIUM, Strain/Indicator: TA100, Metabolic Activation: S-9) was “active; positive” and the mutagenic call (Test System: AMES SALMONELLA TYPHIMURIUM, Strain/Indicator: TA100NR, Metabolic Activation: NONE) was “active; positive”. The mutagenic call (Test System: AMES SALMONELLA TYPHIMURIUM, Strain/Indicator: TA100NR, Metabolic Activation: S-9) was “active; positive”.

For `Cc1ccc2cc3ccc4ccccc4c3cc2c1`, the mutagenic call (Test System: AMES SALMONELLA TYPHIMURIUM, Strain/Indicator: TA100, Metabolic Activation: RAT, INTACT HEPATOCYTES, AROCLOR 1254, Method: PREINCUBATION) was “active; positive”, the mutagenic call (Test System: AMES SALMONELLA TYPHIMURIUM, Strain/Indicator: TA100, Metabolic Activation: RAT, NADPH-FORTIFIED HOMOGENIZED HEPATOCYTES, AROCLOR 1254, Method: PREINCUBATION) was “active; positive” and the mutagenic call (Test System: AMES SALMONELLA TYPHIMURIUM, Strain/Indicator: TA100, Metabolic Activation: RAT, SONICATED HEPATOCYTES, AROCLOR 1254, Method: PREINCUBATION) was “active; positive”.

With `C=CCN1C2c3ccccc3-c3ccccc3C21` (centres undefined) the mutagenic call [1] was “active; positive” and the mutagenic call (Test System: CHINESE HAMSTER V-79, Strain/Indicator: V-79/6-THIOGUANINE, Metabolic Activation: NONE, Method: STANDARD PLATE) was “active; positive”.

For `CC(C)(C)N(Cc1ccccc1)CC(O)c1ccc(O)c(CO)c1` (centres undefined), the mutagenic call (Test System: AMES SALMONELLA TYPHIMURIUM, Strain/Indicator: TA98(PKM101), Metabolic Activation: NONE, Method: STANDARD PLATE) was “inactive; negative”, the mutagenic call (Test System: AMES SALMONELLA TYPHIMURIUM, Strain/Indicator: TA100(PKM101), Metabolic Activation: NONE, Method: STANDARD PLATE) was “active; positive” and the mutagenic call [3] was “inactive; negative”. The mutagenic call (Test System: AMES SALMONELLA TYPHIMURIUM, Strain/Indicator: TA1538, Metabolic Activation: NONE, Method: STANDARD PLATE) was “inactive; negative”.

In the case of `[O]=[Cr][O][Cr]=[O]`, the mutagenic call (Test System: CHINESE HAMSTER V-79, Strain/Indicator: V-79/6-THIOGUANINE, Metabolic Activation: NONE) is reported as “active; positive”.

With `c1ccc2c(c1)ccc1ccc3c(c12)CCC3` the mutagenic call [2] was “active; positive”.

For `CC(N)c1ccccc1.CC(N)c1ccccc1.[Cl][Pt][Cl]` (centres undefined), the mutagenic call [4] was “active; positive”, the mutagenic call [1] was “active; positive” and the mutagenic call (Test System: AMES SALMONELLA TYPHIMURIUM, Strain/Indicator: TA2410, Metabolic Activation: NONE, Method: STANDARD PLATE) was “active; positive”.

With `NC(=O)CCC(=O)Nc1ccc(Cl)c(Cl)c1Cl` the mutagenic call [4] was “inactive; negative”, the mutagenic call [5] was “inactive; negative” and the mutagenic call [1] was “inactive; negative”. For the same molecule, the mutagenic call [2] was “inactive; negative”.

`CN(CCCl)c1ccc(/C=C/C2=[N+](C)c3ccccc3C2(C)C)cc1` was tested, and the mutagenic call (Test System: Ames Salmonella typhimurium, Strain/Indicator: TA98, Metabolic Activation: None, Method: Preincubation) was “inactive; negative”, the mutagenic call (Test System: Ames Salmonella typhimurium, Strain/Indicator: TA98, Metabolic Activation: Rat, Liver, S-9, Aroclor 1254, Method: Preincubation) was “inactive; negative” and the mutagenic call (Test System: Ames Salmonella typhimurium, Strain/Indicator: TA100, Metabolic Activation: None, Method: Preincubation) was “inactive; negative”. The mutagenic call (Test System: Ames Salmonella typhimurium, Strain/Indicator: TA100, Metabolic Activation: Rat, Liver, S-9, Aroclor 1254, Method: Preincubation) was “inactive; negative”, the mutagenic call (Test System: Ames Salmonella typhimurium, Strain/Indicator: TA102, Metabolic Activation: None, Method: Preincubation) was “inactive; negative” and the mutagenic call (Test System: Ames Salmonella typhimurium, Strain/Indicator: TA102, Metabolic Activation: Rat, Liver, S-9, Aroclor 1254, Method: Preincubation) was “inactive; negative”. The mutagenic call (Test System: Ames Salmonella typhimurium, Strain/Indicator: TA1535, Metabolic Activation: None, Method: Preincubation) was “inactive; negative” and the mutagenic call (Test System: Ames Salmonella typhimurium, Strain/Indicator: TA1535, Metabolic Activation: Rat, Liver, S-9, Aroclor 1254, Method: Preincubation) was “inactive; negative”.

In the case of `CC(=O)C(Cl)(Cl)Cl`, the mutagenic call [4] is reported as “active; positive”, the mutagenic call [5] is reported as “active; positive” and the mutagenic call (Test System: AMES SALMONELLA TYPHIMURIUM, Strain/Indicator: TA100, Metabolic Activation: NONE, Method: FLUCTUATION TEST) is reported as “active; positive”. The mutagenic call [1] was “active; positive”, the mutagenic call (Test System: AMES SALMONELLA TYPHIMURIUM, Strain/Indicator: TA100, Metabolic Activation: RAT, LIVER, S-9, AROCLOR 1254, Method: FLUCTUATION TEST) was “inactive; negative” and the mutagenic call [2] was “active; positive”. The mutagenic call [3] was “active; positive”, the mutagenic call (Test System: AMES SALMONELLA TYPHIMURIUM, Strain/Indicator: TA1535, Metabolic Activation: RAT, LIVER, S-9, AROCLOR 1254, Method: STANDARD PLATE) was “active; positive” and the mutagenic call (Test System: AMES SALMONELLA TYPHIMURIUM, Strain/Indicator: TA1537, Metabolic Activation: NONE, Method: STANDARD PLATE) was “inactive; negative”. For the same molecule, the mutagenic call (Test System: AMES SALMONELLA TYPHIMURIUM, Strain/Indicator: TA1537, Metabolic Activation: RAT, LIVER, S-9, AROCLOR 1254, Method: STANDARD PLATE) was “inactive; negative”.
